Test results published in patent publication US20240182531A1, “KV1.3 Blockers” (priority 2021, published 2024).
Where a SMILES comes first, the peptide text is derived from it. Bridges are numbered along the chain shown (N, C = ends). [ ]: non-standard residue; d: D form. Nle = CCCC[C@H](N)C(=O)O; Abu = CC[C@H](N)C(=O)O

Legend:
[1] = target: T1, human Kv1.2 (Homo sapiens, UniProt P16389); experiment: cell-based; conditions: ratio of patch clamp IC50 values
T1 construct: expressed in transfected cells; host or cells: CHO
T1 sequence (P16389 whole entry): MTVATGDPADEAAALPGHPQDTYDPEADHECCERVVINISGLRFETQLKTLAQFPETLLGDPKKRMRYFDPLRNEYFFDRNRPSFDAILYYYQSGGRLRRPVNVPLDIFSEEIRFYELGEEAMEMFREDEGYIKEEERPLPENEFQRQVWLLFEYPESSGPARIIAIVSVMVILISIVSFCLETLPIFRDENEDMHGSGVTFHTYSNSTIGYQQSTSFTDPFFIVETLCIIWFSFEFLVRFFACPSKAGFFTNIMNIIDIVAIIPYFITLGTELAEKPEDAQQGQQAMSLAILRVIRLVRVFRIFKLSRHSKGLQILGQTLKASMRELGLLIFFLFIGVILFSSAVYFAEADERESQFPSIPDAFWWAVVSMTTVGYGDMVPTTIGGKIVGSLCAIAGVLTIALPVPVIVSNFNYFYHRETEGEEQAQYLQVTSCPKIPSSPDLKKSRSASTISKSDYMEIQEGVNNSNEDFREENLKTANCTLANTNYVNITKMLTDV

[2] = target: T2, human Kv1.1 (Homo sapiens, UniProt Q09470); experiment: cell-based; conditions: ratio of patch clamp IC50 values
T2 construct: expressed in transfected cells; host or cells: CHO
T2 sequence (Q09470 whole entry): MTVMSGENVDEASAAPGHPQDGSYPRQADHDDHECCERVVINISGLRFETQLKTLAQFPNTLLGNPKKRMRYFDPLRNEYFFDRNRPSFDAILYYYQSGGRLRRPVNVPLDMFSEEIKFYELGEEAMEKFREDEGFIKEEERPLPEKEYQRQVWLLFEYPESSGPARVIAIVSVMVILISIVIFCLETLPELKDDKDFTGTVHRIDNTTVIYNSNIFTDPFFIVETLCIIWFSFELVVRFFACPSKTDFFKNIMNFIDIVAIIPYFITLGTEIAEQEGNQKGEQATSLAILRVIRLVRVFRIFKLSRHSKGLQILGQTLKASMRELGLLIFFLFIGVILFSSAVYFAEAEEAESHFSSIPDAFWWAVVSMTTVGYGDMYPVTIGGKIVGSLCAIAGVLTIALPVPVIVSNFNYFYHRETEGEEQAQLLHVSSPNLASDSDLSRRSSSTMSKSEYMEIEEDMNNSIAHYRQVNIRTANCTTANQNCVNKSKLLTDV

[3] = target: T3, human Kv1.6 (Homo sapiens, UniProt P17658); experiment: cell-based; conditions: ratio of patch clamp IC50 values
T3 construct: expressed in transfected cells; host or cells: CHO
T3 sequence (P17658 whole entry): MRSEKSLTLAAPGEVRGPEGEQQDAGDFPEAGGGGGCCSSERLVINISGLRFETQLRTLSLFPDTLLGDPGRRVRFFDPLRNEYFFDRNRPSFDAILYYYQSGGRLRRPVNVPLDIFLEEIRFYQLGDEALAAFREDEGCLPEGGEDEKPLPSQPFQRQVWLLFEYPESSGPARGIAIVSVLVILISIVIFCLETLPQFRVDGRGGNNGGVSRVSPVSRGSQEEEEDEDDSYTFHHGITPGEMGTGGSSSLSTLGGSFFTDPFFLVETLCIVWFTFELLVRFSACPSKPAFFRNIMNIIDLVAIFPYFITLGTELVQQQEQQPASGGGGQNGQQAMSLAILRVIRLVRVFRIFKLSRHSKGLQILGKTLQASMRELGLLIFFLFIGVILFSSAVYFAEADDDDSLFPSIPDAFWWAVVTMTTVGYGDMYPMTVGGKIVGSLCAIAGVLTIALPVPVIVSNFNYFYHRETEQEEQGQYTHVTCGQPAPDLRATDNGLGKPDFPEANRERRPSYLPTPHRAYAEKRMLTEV

[4] = target: Rat whole blood (Rattus norvegicus, UniProt P15384); type: cell-based; conditions: IL-17A release, thapsigargin, 24 Hr, at least 2 replicates
Chain of Rat whole blood (P15384 whole entry): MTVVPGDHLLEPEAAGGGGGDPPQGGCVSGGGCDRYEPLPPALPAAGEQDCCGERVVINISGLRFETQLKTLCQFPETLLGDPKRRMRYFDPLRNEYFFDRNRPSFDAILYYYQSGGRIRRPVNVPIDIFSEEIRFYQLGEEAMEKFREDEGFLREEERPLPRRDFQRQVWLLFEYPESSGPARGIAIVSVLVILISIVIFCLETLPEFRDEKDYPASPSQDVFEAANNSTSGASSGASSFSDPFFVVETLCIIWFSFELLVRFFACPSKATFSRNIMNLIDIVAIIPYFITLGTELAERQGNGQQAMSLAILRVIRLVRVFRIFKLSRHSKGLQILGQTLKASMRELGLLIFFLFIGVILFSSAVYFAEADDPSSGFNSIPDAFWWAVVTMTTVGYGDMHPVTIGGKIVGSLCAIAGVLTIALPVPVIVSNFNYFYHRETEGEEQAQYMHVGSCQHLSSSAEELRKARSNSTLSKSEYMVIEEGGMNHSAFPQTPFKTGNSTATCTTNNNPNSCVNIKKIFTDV

Compound | Selectivity ratio Kv1.2/Kv1.3 [1] | Selectivity ratio Kv1.1/Kv1.3 [2] | Selectivity ratio Kv1.6/Kv1.3 [3] | IC50 [4] [nM]
CC[C@H](C)[C@@H]1NC(=O)[C@H](C)NC(=O)[C@H](CCCCN)NC(=O)[C@H](CC(C)C)NC(=O)[C@@H]2CSSC[C@@H](C(=O)N[C@@H](Cc3ccc(O)cc3)C(=O)N3CCC[C@H]3C(=O)N[C@@H](CCCNC(=N)N)C(=O)O)NC(=O)[C@H](CCCCN)NC(=O)[C@@H]3CSSC[C@H](NC(=O)[C@H](CCC(=O)O)NC(=O)[C@H](C(C)C)NC(=O)[C@H](CO)NC(=O)[C@H](C)NC(=O)[C@H](CO)NC(=O)[C@@H](NC(=O)[C@H](CCCNC(=N)N)NC(=O)[C@H](CCSC)NC(=O)[C@H](CC(=O)O)NC(=O)[C@H](CCSC)NC(=O)[C@@H](N)CCC(N)=O)CSSC[C@H](NC(=O)[C@H](CCCCN)NC(=O)CNC(=O)[C@H](Cc4ccccc4)NC(=O)CNC(=O)[C@H](CCCNC(=N)N)NC(=O)CNC1=O)C(=O)N[C@@H](CCSC)C(=O)N[C@@H](CC(N)=O)C(=O)N[C@@H](CCCCN)C(=O)N[C@@H](CCCCN)C(=O)N3)C(=O)N[C@@H](CCCCN)C(=O)N[C@@H](CCC(N)=O)C(=O)N[C@@H](CCCCN)C(=O)N2 [compound 16] (H-QMDMRCSASVECKQKCLKAIGRGFGKCMNKKCKCYPR-OH; disulfide 6-27, 12-32, 16-34) | 65 | >2000 | 1204 | –
CC[C@H](C)[C@@H]1NC(=O)[C@H](C)NC(=O)[C@H](CCCCN)NC(=O)[C@H](CC(C)C)NC(=O)[C@@H]2CSSC[C@@H](C(=O)N[C@@H](Cc3ccc(O)cc3)C(=O)N3CCC[C@H]3C(=O)N[C@@H](CCCNC(=N)N)C(=O)O)NC(=O)[C@H](CCCCN)NC(=O)[C@@H]3CSSC[C@H](NC(=O)[C@H](CCC(=O)O)NC(=O)[C@H](C(C)C)NC(=O)[C@H](CO)NC(=O)[C@H](C)NC(=O)[C@H](CO)NC(=O)[C@@H](NC(=O)[C@H](CCCNC(=N)N)NC(=O)[C@H](CCSC)NC(=O)[C@H](CC(=O)O)NC(=O)[C@@H](N)CCSC)CSSC[C@H](NC(=O)[C@H](CCCCN)NC(=O)CNC(=O)[C@H](Cc4ccccc4)NC(=O)[C@H]([C@@H](C)CC)NC(=O)[C@H](CO)NC(=O)CNC1=O)C(=O)N[C@@H](CCSC)C(=O)N[C@@H](CC(N)=O)C(=O)N[C@@H](CCCCN)C(=O)N[C@@H](CCCCN)C(=O)N3)C(=O)N[C@@H](CCCCN)C(=O)N[C@@H](CCC(N)=O)C(=O)N[C@@H](CCCCN)C(=O)N2 [compound 18] (H-MDMRCSASVECKQKCLKAIGSIFGKCMNKKCKCYPR-OH; disulfide 5-26, 11-31, 15-33) | 747 | >7900 | >7900 | –
CC[C@H](C)[C@@H]1NC(=O)[C@H](C)NC(=O)[C@H](CCCCN)NC(=O)[C@H](CC(C)C)NC(=O)[C@@H]2CSSC[C@@H](C(=O)N[C@@H](Cc3ccc(O)cc3)C(=O)N3CCC[C@H]3C(=O)N[C@@H](CCCNC(=N)N)C(=O)O)NC(=O)[C@H](CCCCN)NC(=O)[C@@H]3CSSC[C@H](NC(=O)[C@H](CCC(=O)O)NC(=O)[C@H](C(C)C)NC(=O)[C@H](CO)NC(=O)[C@H](C)NC(=O)[C@H](CO)NC(=O)[C@@H](NC(=O)[C@H](CCCNC(=N)N)NC(=O)[C@H](CCSC)NC(=O)[C@H](CC(=O)O)NC(=O)[C@@H](NC(=O)[C@@H](N)CC(N)=O)[C@@H](C)CC)CSSC[C@H](NC(=O)[C@H](CCCCN)NC(=O)CNC(=O)[C@H](Cc4ccccc4)NC(=O)[C@H]([C@@H](C)CC)NC(=O)[C@H](CO)NC(=O)CNC1=O)C(=O)N[C@@H](CCSC)C(=O)N[C@@H](CC(N)=O)C(=O)N[C@@H](CCCCN)C(=O)N[C@@H](CCCCN)C(=O)N3)C(=O)N[C@@H](CCCCN)C(=O)N[C@@H](CCC(N)=O)C(=O)N[C@@H](CCCCN)C(=O)N2 [compound 19] (H-NIDMRCSASVECKQKCLKAIGSIFGKCMNKKCKCYPR-OH; disulfide 6-27, 12-32, 16-34) | 857 | >6800 | >6800 | –
CC[C@H](C)[C@@H]1NC(=O)[C@H](C)NC(=O)[C@H](CCCCN)NC(=O)[C@H](CC(C)C)NC(=O)[C@@H]2CSSC[C@@H](C(=O)N[C@@H](Cc3ccc(O)cc3)C(=O)N3CCC[C@H]3C(=O)N[C@@H](CCCNC(=N)N)C(=O)O)NC(=O)[C@H](CCCCN)NC(=O)[C@@H]3CSSC[C@H](NC(=O)[C@H](CCC(=O)O)NC(=O)[C@H](C(C)C)NC(=O)[C@H](CO)NC(=O)[C@H](C)NC(=O)[C@H](CO)NC(=O)[C@@H](NC(=O)[C@H](CCCNC(=N)N)NC(=O)[C@H](CCSC)NC(=O)[C@H](CCC(=O)O)NC(=O)[C@H](CCSC)NC(=O)[C@@H](N)CC(N)=O)CSSC[C@H](NC(=O)[C@H](CCCCN)NC(=O)CNC(=O)[C@H](Cc4ccccc4)NC(=O)[C@H]([C@@H](C)CC)NC(=O)[C@H](CO)NC(=O)CNC1=O)C(=O)N[C@@H](CCSC)C(=O)N[C@@H](CC(N)=O)C(=O)N[C@@H](CCCCN)C(=O)N[C@@H](CCCCN)C(=O)N3)C(=O)N[C@@H](CCCCN)C(=O)N[C@@H](CCC(N)=O)C(=O)N[C@@H](CCCCN)C(=O)N2 [compound 20] (H-NMEMRCSASVECKQKCLKAIGSIFGKCMNKKCKCYPR-OH; disulfide 6-27, 12-32, 16-34) | 2093 | >27600 | >27600 | –
CCCC[C@@H]1NC(=O)[C@@H]2CSSC[C@H](NC(=O)[C@H](CCCNC(=N)N)NC(=O)[C@H](CCCC)NC(=O)[C@H](CC(=O)O)NC(=O)[C@H](CCCC)NC(=O)[C@@H](N)CC(N)=O)C(=O)N[C@@H](CO)C(=O)N[C@@H](C)C(=O)N[C@@H](CO)C(=O)N[C@@H](C(C)C)C(=O)N[C@@H](CCC(=O)O)C(=O)N[C@H]3CSSC[C@H](NC(=O)[C@H](CCCCN)NC(=O)[C@H](CCCCN)NC(=O)[C@H](CC(N)=O)NC1=O)C(=O)N[C@@H](CCCCN)C(=O)N[C@H](C(=O)N[C@@H](Cc1ccc(O)cc1)C(=O)N1CCC[C@H]1C(=O)N[C@@H](CCCNC(=N)N)C(N)=O)CSSC[C@H](NC(=O)[C@H](CCCCN)NC(=O)[C@H](CCC(N)=O)NC(=O)[C@H](CCCCN)NC3=O)C(=O)N[C@@H](CC(C)C)C(=O)N[C@@H](CCCCN)C(=O)N[C@@H](C)C(=O)N[C@@H]([C@@H](C)CC)C(=O)NCC(=O)N[C@@H](CO)C(=O)N[C@@H]([C@@H](C)CC)C(=O)N[C@@H](Cc1ccccc1)C(=O)NCC(=O)N[C@@H](CCCCN)C(=O)N2 [compound 44] (H-N[Nle]D[Nle]RCSASVECKQKCLKAIGSIFGKC[Nle]NKKCKCYPR-NH2; disulfide 6-27, 12-32, 16-34) | 436 | >11600 | 7073 | –
CC[C@H](C)[C@@H]1NC(=O)[C@H](C)NC(=O)[C@H](Cc2ccc(O)cc2)NC(=O)[C@H](CC(C)C)NC(=O)[C@@H]2CSSC[C@@H](C(=O)N[C@@H](Cc3ccc(O)cc3)C(=O)N3CCC[C@H]3C(=O)N[C@@H](CCCNC(=N)N)C(N)=O)NC(=O)[C@H](CCCCN)NC(=O)[C@@H]3CSSC[C@H](NC(=O)[C@H](CCC(=O)O)NC(=O)[C@H](C(C)C)NC(=O)[C@H](CO)NC(=O)[C@H](C)NC(=O)[C@H](CO)NC(=O)[C@@H](NC(=O)[C@H](CCCNC(=N)N)NC(=O)[C@H](CCSC)NC(=O)[C@H](CC(=O)O)NC(=O)[C@H](CCSC)NC(=O)[C@@H](N)CC(N)=O)CSSC[C@H](NC(=O)[C@H](CCCCN)NC(=O)CNC(=O)[C@H](Cc4ccccc4)NC(=O)[C@H]([C@@H](C)CC)NC(=O)[C@H](CO)NC(=O)CNC1=O)C(=O)N[C@@H](CCSC)C(=O)N[C@@H](CC(N)=O)C(=O)N[C@@H](CCCCN)C(=O)N[C@@H](CCCCN)C(=O)N3)C(=O)N[C@@H](CCCCN)C(=O)N[C@@H](CCC(N)=O)C(=O)N[C@@H](CCCCN)C(=O)N2 [compound 57] (H-NMDMRCSASVECKQKCLYAIGSIFGKCMNKKCKCYPR-NH2; disulfide 6-27, 12-32, 16-34) | 514 | >10300 | >10300 | –
CC[C@H](C)[C@@H]1NC(=O)[C@H](C)NC(=O)[C@H](CC(C)C)NC(=O)[C@@H]2CSSC[C@@H](C(=O)N[C@@H](Cc3ccc(O)cc3)C(=O)N3CCC[C@H]3C(=O)N[C@@H](CCCNC(=N)N)C(N)=O)NC(=O)[C@H](CCCCN)NC(=O)[C@@H]3CSSC[C@H](NC(=O)[C@H](CCC(=O)O)NC(=O)[C@H](C(C)C)NC(=O)[C@H](CO)NC(=O)[C@H](C)NC(=O)[C@H](CO)NC(=O)[C@@H](NC(=O)[C@H](CCCNC(=N)N)NC(=O)[C@H](CCSC)NC(=O)[C@H](CC(=O)O)NC(=O)[C@H](CCSC)NC(=O)[C@@H](N)CC(N)=O)CSSC[C@H](NC(=O)[C@H](CCCCN)NC(=O)CNC(=O)[C@H](Cc4ccccc4)NC(=O)[C@H]([C@@H](C)CC)NC(=O)[C@H](CO)NC(=O)CNC1=O)C(=O)N[C@@H](CCSC)C(=O)N[C@@H](CC(N)=O)C(=O)N[C@@H](CCCCN)C(=O)N[C@@H](CCCCN)C(=O)N3)C(=O)N[C@@H](CCCCN)C(=O)N[C@@H](CCC(N)=O)C(=O)N[C@@H](CCCCN)C(=O)N2 [compound 58] (H-NMDMRCSASVECKQKCLAIGSIFGKCMNKKCKCYPR-NH2; disulfide 6-26, 12-31, 16-33) | 121 | >1200 | >1200 | –
H-S[Nle]D[Nle]RCSASVECK[2-Amino-5-carboxypentanoyl]KCLKAIGSIFGKCMNKKCKCYPR-NH2 [compound 73] | – | – | – | 0.52
H-S[Nle]D[Nle]RCSASVECVQKCLKAIGSIFGKCMNKKCKCYPR-NH2 (cysteine pairing not given here) [compound 72] | – | – | – | 0.47
H-S[Nle]D[Nle]RCSA[Abu]VECKQKCLKAIGSIFGKCMNKKCKCYPR-NH2 (cysteine pairing not given here) [compound 68] | – | – | – | 0.93
LRCSASVECKQKCLAAIGSIFGKCMNKKCKCYPR [compound 105] | – | – | – | 0.36
NMDMRCSASVECKQKCLKAIGSIFGKCMNKKCVCYPR [compound 42] | – | – | – | 2.8
NMDMRCSASVECKQKCLKAIHSIFGKCMNKKCKCYPR [compound 37] | – | – | – | 0.7
